According to a melting point compilation (Tetko et al.; mined from patent text by program, amines drawn as free bases though some values may be those of a salt):

First: Cc1ccc2c(c1Cl)C(=O)N(C1(C#N)CCCCC1)C2=O
Second: Cc1cccc2c1c(C(=O)CC1CCCCCC1)cn2CCO
The melting point of the first is higher: 165 to 168 °C for the first, 98 to 104 °C for the second.

First: O=C(O[C@@H]1CC[C@H]1Br)c1ccccc1 (relative stereo)
Second: O=C(N[C@H]1C(=O)N[C@@H]1CCO)OCc1ccccc1
The melting point of the first is lower: 38 to 40 °C for the first, 120 to 121 °C for the second.

Going from `CCOC(=O)c1c(N2CCN(C(=O)c3cccs3)CC2)c2cscc2[nH]c1=O` to `O=C(NCC(=O)N1c2ccccc2N(Cc2ccccc2)C(=O)[C@H]2CCC[C@H]21)c1cccs1` (relative stereo), the melting point falls from 282 °C to 223 °C.

First: CNC(=S)Nc1c(C)cccc1N1CCOCC1
Second: c1ccc(CSc2ncnc3c(N4CCOCC4)nc(N4CCNCC4)nc23)cc1
The melting point of the first is lower: 182 to 183 °C for the first, 191 to 193 °C for the second.

First: COc1ccc(S(=O)(=O)N2CCc3cccc(NC(=O)c4ccncc4)c32)cc1
Second: COc1cc(NS(=O)(=O)c2ccc(N3CCNC3=O)cc2)cc(OC)c1
The melting point of the first is higher: 219 to 220 °C for the first, 200 to 201 °C for the second.

First: COC(=O)c1cc(NC(=O)COc2ccccc2)c2cc(Cc3ccc(F)cc3)cnc2c1O
Second: O=C(O)c1ccc(OCCCOc2ccccc2)cc1C(=O)O
The melting point of the first is higher: 172 to 173 °C for the first, 155 to 159 °C for the second.

First: Cc1cnc2c(c1)CCCC2C(N)=O (centres undefined)
Second: O=C(Nc1cnc2c(c1)CCCC2)C(Cl)(Cl)Cl
The melting point of the first is lower: 104 °C for the first, 157 to 159 °C for the second.

`O=C(O)c1cccc(-c2cccc(CC(=O)N(Cc3ccccc3)C3c4ccccc4CCC3Cc3ccccc3)c2)c1` (centres undefined) and `O=C(NCCO)c1cccc(-c2ccc3c(c2)C(Oc2ccc(Cl)cc2Cl)CCC3)c1` (centres undefined) fall in the same range of melting point: 171 to 172 °C for the first, 171 to 172 °C for the second.

First: COc1ccc(Cl)n2nc(SCc3ccccc3)nc12
Second: COC(=O)c1nc2n(n1)-c1ccccc1N(c1cccc(C)c1C)C2
The melting point of the first is lower: 99 to 100 °C for the first, 170 to 172 °C for the second.

First: COc1cc(OC)nc(Oc2cccnc2C(=O)O)n1
Second: CNc1nc(-c2cccc(NC(=O)c3ccccc3O)c2)c2cc(OC)c(OC)cc2n1
The melting point of the first is lower: 120 to 121 °C for the first, 212 to 214 °C for the second.

First: CCc1cccc2c3c([nH]c12)C(CC)(CC(=O)O)CCC3c1ccccc1 (centres undefined)
Second: COC(=O)c1cccc2[nH]c3cc4ccccc4c(OC)c3c12
The melting point of the first is lower: 140 to 142 °C for the first, 190 to 196 °C for the second.

First: CC(=O)CCC(=O)Nc1cc(CO)cc(Nc2c3ccccc3nc3ccccc23)c1
Second: CCCCc1oc2ccccc2c1C(=O)Nc1ccc2c(Br)c(O)ccc2c1
The melting point of the first is higher: 197 to 199 °C for the first, 195 to 197 °C for the second.

First: [N-]=[N+]=NCc1cccnc1
Second: CCCc1ccc(Br)nn1
The melting point of the first is higher: 40 to 43 °C for the first, 35 to 36 °C for the second.

Compared with `COc1cc(OC)c2c(C)c(CCCl)c(=O)oc2c1`, `COc1ccc(Sc2ccc3c(c2)OCC(=O)N3)cc1OC` is lower in melting point: 129 to 130 °C for the first, 97 to 98 °C for the second.

First: Cc1ccc(F)c(NS(=O)(=O)c2n[nH]c(NC=O)n2)c1F
Second: CCC(CC)N(Cc1ccc(C#N)cc1F)S(=O)(=O)c1ccc(F)cc1
The melting point of the first is higher: 270 to 273 °C for the first, 102 to 104 °C for the second.

Compared with `CCCCc1nc(CC(=O)O)c(-c2ccco2)o1`, `CCCn1c(=O)c2c(nc(/C=C/c3ccco3)n2C)n(CCC)c1=O` is higher in melting point: 62 to 63 °C for the first, 161 to 162 °C for the second.

First: O=[N+]([O-])c1cc(F)ccc1N1CCNCC1
Second: Cc1nc2ccc(F)cc2c2c1ncn2C
The melting point of the first is lower: 85 to 87 °C for the first, 184 to 186 °C for the second.

Compared with `CCCCCC(C)C(C)c1cc(O)c2c(c1)OC(C)(C)C1=C2CN(CC(=O)NC(=O)NC)CC1` (centres undefined), `CCC(=O)Nc1ccc(C2=NN(C(=O)CC)C(C)Cc3cc4c(cc32)OCO4)cc1` (centres undefined) is higher in melting point: 145 to 147 °C for the first, 152 to 154 °C for the second.

First: CCCCCCCCCCCC(=O)NCCOCCn1c(CCOC)nc2c(N)nc3ccccc3c21
Second: CCCCCCCCCCCCCCCCCCNC(=O)OCC(CO)NC(=O)OC (centres undefined)
The melting point of the first is lower: 80 to 83 °C for the first, 84 to 85 °C for the second.

First: CC(=O)OCNC(=O)c1cc(Cl)nc(Cl)c1
Second: COc1ccc(C(=O)NCCCCCNC(=O)c2ccc(OC)cc2)cc1
The melting point of the first is lower: 94 to 95 °C for the first, 160 to 161 °C for the second.

Going from `O=C(O)c1cc(C(F)(F)F)cc(Cl)c1-n1cnc(C(F)(F)F)cc1=O` to `O=C(O)c1cnc2c3ccccc3ncn2c1=O`, the melting point rises from 225 °C to greater than 270 °C.

Compared with `O=C(O)Cc1ccc2occ(-c3ccc(C(=O)O)cc3)c2c1`, `CC(=O)Nc1cccc2ccc(O)cc12` is lower in melting point: 278 to 281 °C for the first, 161 to 162 °C for the second.

First: COc1ccccc1-c1ccc2cnc(Nc3cc4c(cc3F)CCC(=O)N4)nn12
Second: Nc1ccc2c(c1)COc1cc(Nc3ccc(C(F)(F)F)cc3N)ccc1C2=O
The melting point of the first is higher: 300 to 305 °C for the first, 93.9 °C for the second.

`O=C(NC1CCC(CCN2CCN(c3nccc4c3OCC4)CC2)CC1)C1CCOC1` (centres undefined) and `O=C(O)CCN1CCN2c3ccccc3Cc3ccccc3C2C1` (centres undefined) cannot be ordered by melting point: 195 °C for the first, 195 to 197 °C for the second.

First: CC(=CC#N)Cn1sc2ccccc2c1=O
Second: CSc1cnc(NC(=O)c2ccccc2OC(C)=O)s1
The melting point of the first is lower: 128 to 130 °C for the first, 145 to 147 °C for the second.

First: OC(c1ccncc1)c1c[nH]c2ccc(F)cc12 (centres undefined)
Second: COc1ccc(-c2nc3cc(F)ccc3s2)cc1OC(C)=O
The melting point of the first is lower: 171 to 173 °C for the first, 190 °C for the second.

Compared with `Cn1c(=O)c2c(NN)nccc2n(C)c1=O`, `CCc1cnc2c(NC(=O)c3c(Cl)cccc3Cl)cccc2c1CN1CCN(C)C1=O` is lower in melting point: 244 °C for the first, 202 to 203 °C for the second.

Compared with `Clc1cc(Cl)c(Oc2c(Cl)ncnc2Cl)c(Cl)c1`, `O=C(CCl)c1ccc(OCc2nnn[nH]2)cc1` is higher in melting point: 104 to 105 °C for the first, 194 to 196 °C for the second.

First: Nc1ccc(-c2ccc(N)cc2C(=O)OCCCCCCOc2ccc(-c3ccccc3)cc2)c(C(=O)OCCCCCCOc2ccc(-c3ccccc3)cc2)c1
Second: COn1cc(-c2ccccc2)c(=O)c(-c2ccccc2)c1
The melting point of the first is lower: 122 to 124 °C for the first, 165 °C for the second.

First: COCCc1ccc(OCC(O)C(C)(C)[N+](=O)[O-])cc1 (centres undefined)
Second: CC(C)(C)CCC(=N)NC(=S)Nc1ccc(Cl)cc1
The melting point of the first is lower: 92 to 94 °C for the first, 135 to 137 °C for the second.

First: CCOC(=O)/C=C/c1cc(C(C)C)c(OC(C)=O)c2c(C)cccc12
Second: COc1cc(OC)c(C(=O)C=Cc2ccc(C)cc2)c(OP(=O)(O)O)c1
The melting point of the first is higher: 122 to 123 °C for the first, 81 to 83 °C for the second.

First: CC[C@@H](c1ccccc1)N(Cc1ccc(C(=O)OC)cc1OC)S(=O)(=O)c1ccc(Cl)cc1
Second: CC(C)(C)OC(=O)NC(COCc1ccccc1)c1nc2c(C(F)(F)F)cccc2c(=O)o1 (centres undefined)
The melting point of the first is higher: 108 to 110 °C for the first, 98 °C for the second.

First: CCOP(=O)(OCC)c1sc2ccccc2c1P(=O)(OCC)OCC
Second: CCOC(=O)c1c(COc2cccc(C)n2)nc2cc(OC)c(OC)cc2c1-c1ccc(OC)c(OC)c1
The melting point of the first is lower: 67 °C for the first, 173 to 174 °C for the second.

Compared with `COC(=O)[C@H](CC(C)C)NC(=O)[C@@H]1CSC(=O)N1`, `CC(=O)N(CC1CC1)c1cccc(-c2ccc3nnc(C)n3n2)c1` is lower in melting point: 125 to 126 °C for the first, 118 to 121 °C for the second.

First: CC1(C)C(=O)Nc2ccc(-c3ccc(C#N)o3)cc21
Second: O=C1c2ccccc2C2(O)Oc3ccc([N+](=O)[O-])cc3C12O (centres undefined)
The melting point of the first is lower: 193 to 194 °C for the first, 206 to 207 °C for the second.

First: CCCCCCCCCCNC(=O)c1ccc(C(=O)NCCCCCCCCCC)c(N(CC(=O)O)CC(=O)O)c1
Second: CCCCc1nc(SCC)c(CO)[nH]1
The melting point of the first is higher: 135 to 136 °C for the first, 128 °C for the second.

First: CC(C)(C)NS(=O)(=O)c1cc([N+](=O)[O-])ccc1Cl
Second: Cc1nnc2c(-c3ccccn3)cccn12
The melting point of the first is higher: 168 to 171 °C for the first, 142 to 143 °C for the second.
